Laboratory results taken from PubChem BioAssay AID1963875 (Molecular Pharmacology Branch, DTP, NCI, 2024).
“And” between values parts separate entries of the source, which are not always exact repeats. Equal values may be shown once.

System: KRAS-mutant PDC complex spheroid viability
Assay: Anticancer human tumor 186277-243-T-J2-PDC patient-derived colon adenocarcinoma cell line growth inhibition [KRAS2]
Settings: for viability, T/C: stronger effect = lower value
From the text: Multicellular complex tumor spheroid response to RAS pathway inhibitors in combination with a targeted agents in patient-derived cell lines with oncogenic KRAS variants from multiple cancer types
A high-throughput screen of multi-cell type tumor spheroids was designed to identify active combinations of targeted small molecules and KRAS pathway inhibitors. Complex spheroids include a stromal component modeled by human endothelial cells (HUVEC) and fibroblasts modeled by human mesenchymal stem cells (MSCs). The concentration ranges selected for each drug and investigational agent were based upon clinically achievable concentrations if the clinical Cmax of the agent was known.
Compounds. The drugs and investigational agents: BI-3406 (NSC825286), BAY-293 (NSC824723), batoprotafib (TNO155; NSC825523), sotorasib (AMG 510; NSC818433), MRTX1257 (NSC819558), elimusertib (BAY 1895344; NSC800525), molibresib (GSK525762; NSC774829), temuterkib (LY3214996; NSC803410), venetoclax (NSC766270), alisertib (NSC759677), olaparib (NSC753686), talazoparib (NSC767125), erdafitinib (NSC781556), ipatasertib (NSC767898), cabozantinib (NSC761068), nintedanib (NSC756659), abemaciclib (NSC768073), docetaxel (NSC628503), trametinib (NSC758246), and sapanisertib (NSC764658) were obtained from the National Cancer Institute (NCI) Developmental Therapeutics Program Chemical Repository. The FDA-approved anticancer drug set is available from the Developmental Therapeutics Program. […] The stock solutions were prepared in dimethyl sulfoxide (DMSO, Sigma-Aldrich, St. Louis, MO, cat. D2650) at 800-fold the tested concentration and stored at -70 degrees C prior to their use. All drugs and investigational agents were tested over a range starting from a high concentration at or near the clinical Cmax and decreasing in half-log increments. If the clinical Cmax for an agent had not been determined, the highest concentration tested was 10 microM.
Cell Culture. All cells were maintained in an incubator at 37 degrees C and 5% CO2 with 95% humidity. The PDC lines were cultured according to standard operating procedures established by the NCI PDMR (https://pdmr.cancer.gov/sops/default.htm). Briefly, all PDCs were thawed and cultured in Matrigel-coated flasks prepared with a working solution of 1X Ham's F-12 nutrient mix, without supplementation (Invitrogen, Waltham, MA, cat. 11765054), 100 U/mL penicillin-streptomycin (Invitrogen, cat. 15140122), and 2.5% Matrigel (Corning Inc., Corning, NY, cat. 354248) for the first three passages. All PDCs were cultured in complete DMEM/F-12 media containing advanced DMEM/F-12 (Invitrogen, cat. 12634028), 4.9% defined fetal bovine serum, heat inactivated (HyClone Laboratories Inc., Logan, UT, cat. SH30070.03HI), 389 ng/mL hydrocortisone (Sigma-Aldrich, cat. H4001), 9.7 ng/mL human EGF recombinant protein (Invitrogen, cat. PHG0313), 23.4 microg/mL adenine (Sigma-Aldrich, cat. A2786), 97.3 U/mL penicillin-streptomycin (Invitrogen, cat. 15140122), 1.9 mM L-glutamine (Invitrogen, cat. 25030081), and 9.7 microM Y-27632 dihydrochloride (Tocris Bioscience, Bristol, United Kingdom, cat. 1254). The PDCs were cultured in complete DMEM/F12 media without 9.7 microM Y-27632 dihydrochloride for at least two passages prior to the screen. The established cell line HOP-62 was cultured in RPMI 1640 medium, HEPES (Invitrogen, cat. 22400105) with 10% defined fetal bovine serum (HyClone Laboratories Inc., cat. SH30070.03) and 2 mM L-glutamine (Invitrogen, cat. 25030081). The pooled donor HUVEC were cultured in endothelial cell growth medium 2 (PromoCell, Heidelberg, Germany, cat. C-22011) and the hMSC were cultured in mesenchymal stem cell growth medium 2 (PromoCell, cat. C-28009). For all experiments, HUVEC and hMSC were used at passages </=5, while the malignant cell lines were used at passages </=15. […]

[1] = compound alone, run of 07/12/2021
[2] = compound alone, run of 07/19/2021
[3] = compound alone, run of 07/26/2021
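Wherever viability, T/C is given: viability read after seven days of compound exposure; 100% = DMSO vehicle-treated spheroids so lower means less viable.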

Row | SMILES | viability, T/C (compound 0.1 µM) | viability, T/C (compound 1 µM) | IC50 [1] | IC50 [2] | IC50 [3] | viability, T/C (compound 0.0316 µM) | viability, T/C (compound 0.0001 µM) | viability, T/C (compound 0.001 µM) | viability, T/C (compound 0.00316 µM) | viability, T/C (compound 0.01 µM) | IC50 (curve of compound) | viability, T/C (compound 0.316 µM) | viability, T/C (compound 3.16 µM) | viability, T/C (compound 10 µM) | viability, T/C (compound 0.000316 µM)
1 | C=CC(=O)N1CCN(c2nc(=O)n(-c3c(C)ccnc3C(C)C)c3nc(-c4c(O)cccc4F)c(F)cc23)C(C)C1 (stereo not drawn) | 98.1% [middle of 17 runs] | 96.4% [middle of 17 runs] | > 10 µM and 9.92 µM and 2.89 µM | > 10 µM and 8.52 µM | > 10 µM | – | – | – | – | – | – | – | – | – | –
2 | C=CC(=O)N1CCN(c2nc(OCC3CCCN3C)nc3c2CCN(c2cccc4cccc(C)c24)C3)CC1CC#N (stereo not drawn) | – | – | – | 1.82 µM [middle of 4 runs] | 1.75 µM [middle of 5 runs] | 98.9% [middle of 16 runs] | – | – | – | – | – | – | – | – | –
3 | CC(=O)Nc1cccc(-n2c(=O)n(C3CC3)c(=O)c3c(Nc4ccc(I)cc4F)n(C)c(=O)c(C)c32)c1 | – | – | – | – | – | 1.43% [middle of 5 runs] | 102% [middle of 5 runs] | 21.2% [middle of 5 runs] | 9.7% [middle of 5 runs] | 4.01% [middle of 5 runs] | 0.622 nM [middle of 5 runs] | – | – | – | –
4 | CC(=O)OC12COC1CC(O)C1(C)C(=O)C(O)C3=C(C)C(OC(=O)C(O)C(NC(=O)OC(C)(C)C)c4ccccc4)CC(O)(C(OC(=O)c4ccccc4)C21)C3(C)C (stereo not drawn) | 3.28% [middle of 5 runs] | 3.38% [middle of 5 runs] | – | – | – | 3.66% [middle of 5 runs] | – | – | – | 5.72% [middle of 5 runs] | < 0.01 µM | 3.46% [middle of 4 runs] | 3.74% [middle of 5 runs] | – | –
5 | CC(C)NCC(C(=O)N1CCN(c2ncnc3c2C(C)CC3O)CC1)c1ccc(Cl)cc1 (stereo not drawn) | 89.8% [middle of 5 runs] | 39.9% and 40.4% (2×) and 33.2% | – | – | – | 89.6% [middle of 5 runs] | – | – | – | – | 746 nM [middle of 5 runs] | 73% [middle of 5 runs] | – | 12.9% [middle of 5 runs] | –
6 | CC(C)n1nc(-c2ccc3oc(N)nc3c2)c2c(N)ncnc21 | 19.2% [middle of 5 runs] | – | – | – | – | 32.1% [middle of 5 runs] | – | 98.8% [middle of 5 runs] | 77.8% [middle of 5 runs] | 56.7% [middle of 5 runs] | 14.1 nM [middle of 5 runs] | – | – | – | 95.7% [middle of 5 runs]
7 | CC1(C)CCC(CN2CCN(c3ccc(C(=O)NS(=O)(=O)c4ccc(NCC5CCOCC5)c([N+](=O)[O-])c4)c(Oc4cnc5[nH]ccc5c4)c3)CC2)=C(c2ccc(Cl)cc2)C1 | 93.7% [middle of 5 runs] | 98.1% [middle of 5 runs] | – | – | – | 97.6% [middle of 5 runs] | – | – | – | – | 2.07 µM [middle of 5 runs] | 104% [middle of 5 runs] | 22.7% [middle of 5 runs] | 4.85% [middle of 5 runs] | –
8 | CC1COCCN1c1cc(-c2ccnn2C)c2ccnc(-c3ccn[nH]3)c2n1 (stereo not drawn) | 7.22% [middle of 5 runs] | 3.65% [middle of 5 runs] | – | – | – | 29.2% [middle of 5 runs] | – | – | – | – | – | 4.63% [middle of 5 runs] | 4.09% [middle of 5 runs] | – | –
9 | CC1OCC2(CCN(c3cnc(Sc4ccnc(N)c4Cl)c(N)n3)CC2)C1N (stereo not drawn) | 102% [middle of 19 runs] | – | > 10 µM | 7.4 µM and > 10 µM | > 10 µM | 107% and 92.4% and 90.5% | – | – | – | – | > 10 µM | – | – | – | –
10 | CCN1CCN(Cc2ccc(Nc3ncc(F)c(-c4cc(F)c5nc(C)n(C(C)C)c5c4)n3)nc2)CC1 | 112% (2×) and 136% and 113% | 101% [middle of 4 runs] | – | – | – | 107% [middle of 4 runs] | – | – | 98.8% [middle of 4 runs] | 98.5% [middle of 4 runs] | > 1 µM | – | – | – | –
11 | CCNC(=O)CC1N=C(c2ccc(Cl)cc2)c2cc(OC)ccc2-n2c(C)nnc21 (stereo not drawn) | 101% (4×) and 92.8% | – | – | – | – | 96.3% [middle of 5 runs] | – | – | – | – | > 10 µM and 5.78 µM | – | – | – | –
12 | CN(C)C/C=C/C(=O)Nc1cc2c(Nc3ccc(F)c(Cl)c3)ncnc2cc1O[C@H]1CCOC1 | 111% [middle of 5 runs] | – | – | – | – | 120% (3×) and 114% and 105% | – | – | 101% [middle of 5 runs] | 108% [middle of 5 runs] | > 0.1 µM | – | – | – | 101% [middle of 5 runs]
13 | CNCc1ccccc1-c1csc(C(C)Nc2nc(C)nc3cc(OC)c(OC)cc23)c1 (stereo not drawn) | 100% [middle of 17 runs] | – | 5.56 µM [middle of 6 runs] | 2.27 µM [middle of 5 runs] | 5.05 µM [middle of 6 runs] | – | – | – | – | – | – | 98.9% [middle of 17 runs] | – | 0.16% [middle of 12 runs] | –
14 | COC(=O)c1ccc2c(C(=Nc3ccc(N(C)C(=O)CN4CCN(C)CC4)cc3)c3ccccc3)c(O)[nH]c2c1 | 104% [middle of 5 runs] | 107% [middle of 5 runs] | – | – | – | 93.8% [middle of 5 runs] | – | – | – | – | 3.62 µM [middle of 4 runs] | 99.4% [middle of 5 runs] | – | 16% [middle of 5 runs] | –
15 | COc1cc(Nc2ncc3c(n2)-c2ccc(Cl)cc2C(c2c(F)cccc2OC)=NC3)ccc1C(=O)O | 34.1% [middle of 5 runs] | 37% [middle of 5 runs] | – | – | – | 37.6% [middle of 5 runs] | – | – | – | – | < 0.0316 µM | 33.4% [middle of 5 runs] | 46.8% [middle of 5 runs] | 50.4% [middle of 5 runs] | –
16 | COc1cc(OC)cc(N(CCNC(C)C)c2ccc3ncc(-c4cnn(C)c4)nc3c2)c1 | 106% [middle of 5 runs] | – | – | – | – | 109% [middle of 5 runs] | – | – | – | – | – | – | – | – | –
17 | COc1cc2nc(C)nc(NC(C)c3cc(N)cc(C(F)(F)F)c3)c2cc1OC1CCOC1 (stereo not drawn) | – | 101% [middle of 17 runs] | > 10 µM | > 10 µM | – | – | – | – | – | – | – | – | – | – | –
18 | COc1cc2nccc(Oc3ccc(NC(=O)C4(C(=O)Nc5ccc(F)cc5)CC4)cc3)c2cc1OC | 99.7% [middle of 5 runs] | – | – | – | – | 92.6% [middle of 5 runs] | – | – | – | – | 2.02 µM [middle of 4 runs] | 104% [middle of 5 runs] | 13.8% [middle of 5 runs] | – | –
19 | Cn1nccc1Nc1nccc(-c2cc3c(s2)C(C)(C)N(CCN2CCOCC2)C3=O)n1 | 90.8% [middle of 5 runs] | 16% [middle of 5 runs] | – | – | – | 101% [middle of 5 runs] | – | – | – | – | 383 nM [middle of 5 runs] | – | 6.29% [middle of 5 runs] | 6.23% [middle of 5 runs] | –
20 | Cn1ncnc1[C@H]1c2n[nH]c(=O)c3cc(F)cc(c23)N[C@@H]1c1ccc(F)cc1 | 80.8% [middle of 5 runs] | – | – | – | – | 91% [middle of 5 runs] | – | 98% [middle of 5 runs] | 101% [middle of 5 runs] | 98.1% [middle of 5 runs] | > 0.1 µM | – | – | – | 99% [middle of 5 runs]
21 | O=C(c1cc(Cc2n[nH]c(=O)c3ccccc23)ccc1F)N1CCN(C(=O)C2CC2)CC1 | 101% [middle of 5 runs] | – | – | – | – | 99.2% [middle of 5 runs] | – | – | – | – | – | 99.5% [middle of 5 runs] | – | 40.3% [middle of 5 runs] | –
